Laboratory results taken from US20020127202A1, “Compounds and compositions for delivering active agents” (Emisphere Technologies, Inc., priority 1996, published 2002).
Read-outs that look alike come from different tables or passages of the source. Each block holds one compound with its values, some of them ahead of it.

Legend:
[1] = rat, in vivo, 100 mg/kg
Description: (§1) The delivery agents were reconstituted with distilled water and/or propylene glycol and adjusted to an apparent pH of 7.2-8.0 with either aqueous hydrochloric acid or aqueous sodium hydroxide. A stock solution of parathyroid hormone was prepared by dissolving parathyroid hormone in water. The parathyroid hormone solution was then added to the delivery agent solution. Several different delivery agent to active agent ratios were studied.
(§2) Male Sprague-Dawley rats weighing 200-250 g were fasted for 24 hours and administered ketamine (44 mg/kg) and chlorpromazine (1.5 mg/kg) 15 minutes prior to dosing. The rats were administered one of the dosing solutions described above by oral gavage or intracolonic instillation. Blood samples were collected serially from the tail artery for serum determination of parathyroid hormone concentration. Serum parathyroid hormone concentrations were quantified by a parathyroid hormone radioimmunoassay test kit.
(§3) Oral administration of solutions containing parathyroid hormone (PTH) and the non-α-amino acid delivery agents was tested in vivo in rats.

[2] = Delivery agent enhancement of parathyroid hormone bioavailability in rats (serum PTH radioimmunoassay)
Description: as §1, §2, §3

[3] = Delivery agent enhancement of salmon calcitonin bioavailability, subcutaneous administration in rats (serum calcium); type: in vivo, Male Sprague-Dawley rats; settings: sCT 0.2 μg/kg
[4] = Delivery agent enhancement of rhGH bioavailability, subcutaneous administration in rats
Description: The delivery agents were reconstituted with distilled water and adjusted to pH 7.2-8.0 with either aqueous hydrochloric acid or aqueous sodium hydroxide. A stock solution of rhGH was prepared by mixing rhGH, D-mannitol and glycine and dissolving this mixture in 2% glycerol/water. The stock solution was then added to the delivery agent solution. Several delivery agent to active agent ratios were studied.
Male Sprague-Dawley rats weighing 200-250g were fasted for 24 hours and administered ketamine (44 mg/kg) and chlorpromazine (1.5 mg/kg) 15 minutes prior to dosing. The rats were administered one of the dosing solutions described above by subcutaneous injection, intranasal instillation, or sublingual instillation. Blood samples were collected serially from the tail artery for serum calcium concentration determination or serum rhGH concentrations. The dose of rhGH administered in these experiments was 0.1 mg/kg.
Serum rhGH concentrations were quantified by an rhGH enzyme immunoassay test kit.

[5] = In vivo delivery of heparin by oral administration in rats (APTT)
Description: In a test tube, 900 mg of carrier were dissolved in 3 mL of propylene glycol, and 0.299 g of sodium heparin was dissolved in 3 mL of water. The solutions were mixed by vortex. Sodium hydroxide (10 M) was added to the resulting mixture until a solution was obtained. The pH was then adjusted to 7.4+/−0.5 with concentrated hydrochloric acid, and the final solution was sonicated at for 30 minutes.
A group of fasted, conscious rats were administered the dosing compositions by oral gavage. Blood samples were collected by cardiac puncture following the administration of ketamine (44 mg/kg)., Heparin activity was determined by utilizing the activated partial thromboplastim time (APTT) according to the method of Henry, J. B., Clinical Diagnosis and Management by Laboratory Methods; Philadelphia, Pa.; W B Saunders (1979).
Heparin (100 mg/kg) was administered by oral gavage to rats, and heparin activity was determined according to the procedure of Example 44.

[6] = In vivo delivery of salmon calcitonin in rats (serum calcium)
Description: 400 mg of carrier were added to 2.9 mL of 25% aqueous propylene glycol. The resultant solution was stirred, and the pH was adjusted to 7.2 with sodium hydroxide (1.0 N). Water was added to bring the total volume to […]. […] Calcitonin (10 μg) was added to the solution. The total calcitonin concentration was 2.5 μg/mL.
For each sample a group of fasted rats were anesthetized. The rats were administered the dosing composition by oral gavage, intracolonic instillation, or intraduodenal administration. Blood samples were collected serially from the tail artery. Serum calcium was determined by testing with a Calcium Kit (Sigma Chemical Company, St. Louis, Mo., USA).

[7] = In vivo delivery of interferon α2b by intracolonic administration in rats (ELISA); settings: carrier dose 100 mg/kg, interferon dose 250 μg/kg
Description: Propylene glycol (0-25%) was added as a solubilizing agent, if necessary.
Rats were administered the dosing composition by oral gavage, intraduodenal administration, or intracolonic administration.

[8] = In vivo delivery of rhGH in rats (serum rhGH by ELISA); settings: oral, no carrier (0 mg/kg), rhGH dose 6 mg/kg
Description: Dosing compositions were prepared by mixing the modified amino acids and recombinant human growth hormone (rhGH) as listed in Table 1 below in a phosphate buffer solution at a pH of about 7-8.
Rats were administered the dosing composition by sublingual, oral gavage, intraduodenal administration, or colonic administration. Delivery was evaluated by using an ELISA assay for rhGH from Medix Biotech, Inc. For intracolonic administration, a sample was prepared and dosed to fasted rats at 25 mg/kg of carrier in a buffered solution containing propylene glycol (0-50%) and 1 mg/kg rhGH.

[9] = intracolonic, carrier dose 100 mg/kg, PTH dose 25 μg/kg
[10] = subcutaneous, delivery agent dose 2.5 mg/kg, rhGH 0.1 mg/kg
[11] = subcutaneous, delivery agent dose 1.0 mg/kg, rhGH 0.1 mg/kg
[12] = carrier dose 300 mg/kg, heparin dose 100 mg/kg

Peak Serum [PTH] [1]: 115 ± 20 pg/mL
Compound: O=C(O)CCCc1ccc(NC(=O)CCOc2ccccc2)cc1 [CVIII]

Peak Serum [PTH] [2, 9]: 65 ± 15 pg/mL
Compound: O=C(O)CCCCCCCNC(=O)c1ccccc1Br [CXIV]
Percent Decrease in Serum Calcium ([3]; delivery agent dose 20 μg/kg): 20 ± 3%

Peak Serum [rhGH] [4, 10]: 16 ± 2 ng/mL
Compound: O=C(O)CCCCCCNC(=O)c1ccccc1O [CXI]
Percent Decrease in Serum Calcium ([3]; delivery agent dose 20 μg/kg): 21 ± 4%

Peak Serum [PTH] [2, 9]: 130 ± 20 pg/mL
Peak Serum [PTH] ([2]; oral, carrier dose 250 mg/kg, PTH dose 25 μg/kg): 20 ± 6 pg/mL
Peak Serum [PTH] ([2]; oral, carrier dose 250 mg/kg, PTH dose 100 μg/kg): 75 ± 25 pg/mL
Peak Serum [rhGH] [4, 11]: 22 ± 3 ng/mL
Peak Serum [rhGH] [4, 10]: 25 ± 5 ng/mL
Peak Serum [rhGH] ([4]; subcutaneous, delivery agent dose 25 mg/kg, rhGH 0.1 mg/kg): 30 ± 6 ng/mL
Compound: O=C(O)CCCCCCCNC(=O)c1ccccc1O [CXXIII]
Percent Decrease in Serum Calcium ([3]; delivery agent dose 2 μg/kg): 17 ± 3%
Percent Decrease in Serum Calcium ([3]; delivery agent dose 20 μg/kg): 25 ± 4%
Percent Decrease in Serum Calcium ([3]; delivery agent dose 200 μg/kg): 25 ± 5%
Percent Decrease in Serum Calcium ([3]; delivery agent dose 2000 μg/kg): 26 ± 5%

Peak Serum [rhGH] [4, 11]: 25 ± 3 ng/mL
Compound: O=C(O)CCCCCCCNC(=O)c1cccc([N+](=O)[O-])c1 [Compound CXV]

Compound: CCC(C(=O)NCCCC(=O)O)C1CCCCC1 (stereo not shown) [Compound III]
Mean Peak APTT [5, 12]: 38.64 ± 17 s

Compound: O=C(O)CCCNC(=O)C1CCCCCC1 [Compound II]
Mean Peak APTT [5, 12]: 25.45 ± 2.8 s

Compound: COc1ccccc1/C=C/C(=O)Nc1ccc(CCC(=O)O)cc1 [Compound LXXXVI]
Peak Serum [PTH] [1]: 40 ± 12 pg/mL

Compound: O=C(O)CCCNC(=O)C1CCCCC1 [Compound V]
Maximum Decrease in Serum Calcium ([6]; oral, carrier dose 400 mg/kg, calcitonin dose 10 μg/kg): 18.35 +/− 2.87 % below baseline
Mean Peak APTT [5, 12]: 87.4 ± 34.1 s

Compound: O=C(O)CCCCCCCNC(=O)c1ccccc1O [Compound XIX]
Maximum Decrease in Serum Calcium ([6]; intracolonic, carrier dose 10 mg/kg, calcitonin dose 3 μg/kg): 26.49 +/− 12.3 % below baseline
Maximum Decrease in Serum Calcium ([6]; oral, carrier dose 200 mg/kg, calcitonin dose 7.5 μg/kg): 25.48 +/− 4.7 % below baseline
Mean Peak APTT [5, 12]: 119.99 ± 56.3 s

Mean Peak Serum Levels of Interferon [7]: 4238 ± 2789 pg/mL
Compound: O=C(O)CCCCCCCNC(=O)/C=C/c1ccccc1O [Compound XXI]

Compound: O=C(O)CCCCCCCCCNC(=O)c1ccccc1O [Compound XXXI]
Mean Peak APTT ([5]; carrier dose 50 mg/kg, heparin dose 10 mg/kg): 50.85 ± 9.1 s
Mean Peak APTT ([5]; carrier dose 50 mg/kg, heparin dose 25 mg/kg): 127.56 ± 22.97 s

Peak Serum [PTH] [1]: 145 ± 25 pg/mL
Compound: CN(C)c1cccc(C(=O)Nc2ccc(CCCC(=O)O)cc2)c1 [LVIII]

Compound: COc1ccccc1/C=C/C(=O)Nc1ccc(CCCC(=O)O)cc1 [LXXXIX]
Peak Serum [PTH] [1]: 70 ± 15 pg/mL

Compound: rhGH: recombinant human growth hormone, active agent dosed alone (Comparative Examples 5A, 16A)
Peak Serum [rhGH] ([4]; no delivery agent (0.0 mg/kg), rhGH alone): 4 ± 2 ng/mL
Mean Peak Serum Levels of rhGH [8]: <10 ± 10 ng/mL
